One may read the EC50 as the concentration giving half of the maximal effect. Broadly, the CC50 is the concentration giving 50% cytotoxicity.

Where only a bound is given, the exact number is not on record here.

In data set [1] the test system is recombinant NL4-3 virus (nef section replaced with Renilla luciferase gene) in MT-2 cells. Briefly: HIV cell culture assay (antiviral activity, luciferase readout). The class given is cell-based. Conditions: MT-2 cells infected for 4-5 days with recombinant NL4-3 luciferase virus. A digest of the protocol:
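Serially diluted compounds were present throughout a 4-5 day infection of MT-2 cells by recombinant NL4-3 whose nef region partly encodes Renilla luciferase. Antiviral activity was taken from live-cell luciferase signal, with the 50% effective concentration fitted by the exponential median effect equation.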

Data set [2] relates to uninfected MT2 cells. Briefly: Compound cytotoxicity, XTT-based colorimetric assay. Type of data set: cell-based. A digest of the protocol:
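XTT colorimetric read-out on day 4 gave CC50 values, using MT2 cells left uninfected but otherwise handled as in the antiviral assay.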
(Formazan colour is commonly taken as a measure of viable cells.)

With `O=C(Cn1nc(C(F)F)c2c1C(F)(F)[C@@H]1C[C@H]21)N[C@H](Cc1cc(F)cc(F)c1)c1nc2cn[nH]c2cc1-c1ccc2scnc2c1` (single isomer, unassigned) [Example 3.1], the EC50 in data set [1] (Table 1) turned out to be 22 nM. The molecule further yielded a CC50 in data set [2] (Table 1, day 4, XTT) of 42100 nM.
Regarding `Cn1nc(NS(C)(=O)=O)c2c(Cl)ccc(-c3cc4scnc4nc3C(Cc3cc(F)cc(F)c3)NC(=O)Cn3nc(C(F)F)c4c3C(F)(F)[C@@H]3C[C@H]43)c21` (single isomer, unassigned) [Example 1.3], in data set [1] (Table 1), the EC50 was 0.3 nM. The CC50 in data set [2] (Table 1, day 4, XTT) was more than 10000 nM.
Consider `Cn1nc(NS(C)(=O)=O)c2c(Cl)ccc(-c3cc4cc[nH]c4nc3C(Cc3cc(F)cc(F)c3)NC(=O)Cn3nc(C(F)F)c4c3C(F)(F)[C@@H]3C[C@H]43)c21` (single isomer, unassigned) [Example 86], for which, in data set [1] (Table 1a), the EC50 came to 1100 nM. Moreover, the CC50 in data set [2] (Table 1a, day 4, XTT) is more than 10000 nM.
`Cn1nc(NS(C)(=O)=O)c2c(Cl)ccc(-n3c([C@H](Cc4cc(F)cc(F)c4)NC(=O)Cn4ccc(C5CC5)n4)nc4cc(CS(C)(=O)=O)ccc4c3=O)c21` (single isomer, unassigned) [Example 206]: the EC50 in data set [1] (Renilla, NL43, Table 1a) was 0.64 nM. In data set [2] (Table 1a, day 4, XTT), this molecule registered a CC50 of more than 1000 nM.
For `Cn1nc(NS(C)(=O)=O)c2c(Cl)ccc(-c3cc4[nH]cnc4nc3C(Cc3cc(F)cc(F)c3)NC(=O)Cn3nc(C(F)F)c4c3C(F)(F)[C@@H]3C[C@H]43)c21` (single isomer, unassigned) [Example 4.2], the EC50 in data set [1] (Table 1) is 1 nM. Besides, the CC50 in data set [2] (Table 1, day 4, XTT) was more than 10000 nM.
On to `Cn1nc(NS(C)(=O)=O)c2c(Cl)ccc(-n3c([C@H](Cc4cc(F)cc(F)c4)NC(=O)Cn4nc(C(F)F)c5c4C(F)(F)[C@@H]4C[C@H]54)nc4cc(CS(C)(=O)=O)ccc4c3=O)c21` (mixture of isomers) [Example 202, N—((S)-1-(3-(4-chloro-1-methyl-3-(methylsulfonamido)-1H-indazol-7-yl)-7-((methylsulfonyl)methyl)-4-oxo-3,4-dihydroquinazolin-2-yl)-2-(3,5-difluorophenyl)ethyl)-2-((3bS,4aR)-3-(difluoromethyl)-5,5-difluoro-3b,4,4a,5-tetrahydro-1H-cyclopropa[3,4]cyclopenta[1,2-c]pyrazol-1-yl)acetamide], for which, in data set [1] (Table 1a), the EC50 was 0.3 nM. The molecule also returned a 50% cytotoxic concentration (CC50) in data set [2] (Table 1a, day 4, XTT) of more than 1000 nM.
Regarding `Cn1nc(NS(C)(=O)=O)c2c(Cl)ccc(-c3cc4cn[nH]c4nc3C(Cc3cc(F)cc(F)c3)NC(=O)Cn3nc(C(F)F)c4c3C(F)(F)[C@@H]3C[C@H]43)c21` (single isomer, unassigned) [Example 6.2], the EC50 in data set [1] (Table 1) worked out at 4.3 nM. In data set [2] (Table 1, day 4, XTT), this molecule displayed a CC50 of more than 10000 nM.
As to `Cn1nc(NS(C)(=O)=O)c2c(Cl)ccc(-n3c([C@H](Cc4cc(F)cc(F)c4)NC(=O)Cn4nc(C(F)F)c5c4C(F)(F)[C@@H]4C[C@H]54)nc4cc(C(C)(C)C)ccc4c3=O)c21` (mixture of isomers) [Example 216, N—((S)-1-(7-(tert-Butyl)-3-(4-chloro-1-methyl-3-(methylsulfonamido)-1H-indazol-7-yl)-4-oxo-3,4-dihydroquinazolin-2-yl)-2-(3,5-difluorophenyl)ethyl)-2-((3bS,4aR)-3-(difluoromethyl)-5,5-difluoro-3b,4,4a,5-tetrahydro-1H-cyclopropa[3,4]cyclopenta[1,2-c]pyrazol-1-yl)acetamide], the EC50 in data set [1] (Table 1a) was 0.059 nM. This molecule had a CC50 in data set [2] (Table 1a, day 4, XTT) of more than 1000 nM.
Turning to `Cc1c(F)ccc2c(=O)n(-c3ccc(Cl)c4c(NS(C)(=O)=O)nn(C)c34)c([C@H](Cc3cc(F)cc(F)c3)NC(=O)Cn3nc(C(F)F)c4c3C(F)(F)[C@@H]3C[C@H]43)nc12` (single isomer, unassigned) [Example 108], the EC50 in data set [1] (Table 1a) is 0.85 nM. Also, the CC50 in data set [2] (Table 1a, day 4, XTT) was more than 1000 nM.
On to `COc1c(F)cc2c(=O)n(-c3ccc(Cl)c4c(NS(C)(=O)=O)nn(C)c34)c([C@H](Cc3cc(F)cc(F)c3)NC(=O)Cn3ccc(C4CC4)n3)nc2c1F` (single isomer, unassigned) [Example 116], for which the EC50 in data set [1] (Table 1a) was 0.231 nM. Further, in data set [2] (Table 1a, day 4, XTT), the CC50 was more than 1000 nM.
In the same order, the values of `COc1c(F)ccc2c(=O)n(-c3ccc(Cl)c4c(NS(C)(=O)=O)nn(C)c34)c([C@H](Cc3cc(F)cc(F)c3)NC(=O)Cn3ccc(C4CC4)n3)nc12` (single isomer, unassigned) [Example 112] are 0.51 nM and more than 1000 nM.
With `Cn1nc(NS(C)(=O)=O)c2c(Cl)ccc(-n3c([C@H](Cc4cc(F)cc(F)c4)NC(=O)Cn4ccc(C(F)(F)F)n4)nc4cc(C(F)(F)F)ccc4c3=O)c21` (single isomer, unassigned) [Example 142], the EC50 in data set [1] (Table 1a) is 4.98 nM. Moreover, the CC50 in data set [2] (Table 1a, day 4, XTT) is more than 1000 nM.
On to `Cn1nc(NS(C)(=O)=O)c2c(Cl)ccc(-c3cc4[nH]ccc4nc3C(Cc3cc(F)cc(F)c3)NC(=O)Cn3nc(C(F)F)c4c3C(F)(F)[C@@H]3C[C@H]43)c21` (single isomer, unassigned) [Example 5.4], for which, in data set [1] (Table 1), the EC50 was 0.2 nM. In addition, the CC50 in data set [2] (Table 1, day 4, XTT) is more than 10000 nM.
In the case of `Cn1nc(NS(C)(=O)=O)c2c(Cl)ccc(-n3c([C@H](Cc4cc(F)cc(F)c4)NC(=O)Cn4ccc(C5CC5)n4)nc4c(F)ccc(F)c4c3=O)c21` (single isomer, unassigned) [Example 146], the EC50 in data set [1] (Table 1a) came to 0.62 nM. Moreover, in data set [2] (Table 1a, day 4, XTT), the 50% cytotoxic concentration (CC50) was more than 1000 nM.
Take `Cn1nc(NS(C)(=O)=O)c2c(Cl)ccc(-c3c(C(Cc4cc(F)cc(F)c4)NC(=O)Cn4nc(C(F)F)c5c4C(F)(F)[C@@H]4C[C@H]54)ncc4[nH]cnc34)c21` (single isomer, unassigned) [Example 7.6]: the EC50 in data set [1] (Table 1) turned out to be 8.1 nM. In addition, in data set [2] (Table 1, day 4, XTT), the CC50 is more than 10000 nM.
Regarding `O=C(Cn1nc(C(F)F)c2c1C(F)(F)[C@@H]1C[C@H]21)N[C@H](Cc1cc(F)cc(F)c1)c1nc2cn[nH]c2cc1-c1ccc2scnc2c1` (single isomer, unassigned) [Example 3.2], in data set [1] (Table 1), the EC50 came out at 960 nM. Moreover, half-maximal cytotoxicity in data set [2] (Table 1, day 4, XTT) (CC50) was put at 12700 nM.
`Cn1nc(NS(C)(=O)=O)c2c(Cl)ccc(-n3c([C@H](Cc4cc(F)cc(F)c4)NC(=O)Cn4ccc(C(F)(F)F)n4)nc4ccc(OC(F)(F)F)cc4c3=O)c21` (single isomer, unassigned) [Example 144]: the EC50 in data set [1] (Table 1a) was 8.08 nM. Further, in data set [2] (Table 1a, day 4, XTT), the CC50 was more than 1000 nM.
`Cn1nc(NS(C)(=O)=O)c2c(Cl)ccc(-c3c(C(Cc4cc(F)cc(F)c4)NC(=O)Cn4nc(C(F)F)c5c4C(F)(F)[C@@H]4C[C@H]54)ncc4[nH]cnc34)c21` (single isomer, unassigned) [Example 7.5]: the EC50 in data set [1] (Table 1) is 1320 nM. This molecule registered a CC50 in data set [2] (Table 1, day 4, XTT) of more than 10000 nM.
With `Cn1ccc2nc(C(Cc3cc(F)cc(F)c3)NC(=O)Cn3nc(C(F)F)c4c3C(F)(F)[C@@H]3C[C@H]43)c(-c3ccc(Cl)c4c(NS(C)(=O)=O)nn(C)c34)cc21` (single isomer, unassigned) [Example 118], the EC50 in data set [1] (Table 1a) amounted to 0.162 nM. The CC50 in data set [2] (Table 1a, day 4, XTT) is more than 10000 nM.
On to `O=C(Cc1c[nH]c2ccc(F)cc12)NC(Cc1cc(F)cc(F)c1)c1nc2cn[nH]c2cc1-c1ccc2scnc2c1` (single isomer, unassigned) [Example 3.6, N-(1-(6-(benzo[d]thiazol-5-yl)-1H-pyrazolo[4,3-b]pyridin-5-yl)-2-(3,5-difluorophenyl)ethyl)-2-(5-fluoro-1H-indol-3-yl)acetamide], for which, in data set [1] (Table 1), the EC50 was found to be 230 nM. In addition, the CC50 in data set [2] (Table 1, day 4, XTT) amounted to 32600 nM.
For the molecule `COc1cccc2nc([C@H](Cc3cc(F)cc(F)c3)NC(=O)Cn3nc(C(F)F)c4c3C(F)(F)[C@@H]3C[C@H]43)n(-c3ccc(Cl)c4c(NS(C)(=O)=O)nn(C)c34)c(=O)c12` (mixture of isomers) [Example 170, N—((S)-1-(3-(4-chloro-1-methyl-3-(methylsulfonamido)-1H-indazol-7-yl)-5-methoxy-4-oxo-3,4-dihydroquinazolin-2-yl)-2-(3,5-difluorophenyl)ethyl)-2-((3bS,4aR)-3-(difluoromethyl)-5,5-difluoro-3b,4,4a,5-tetrahydro-1H-cyclopropa[3,4]cyclopenta[1,2-c]pyrazol-1-yl)acetamide], the EC50 in data set [1] (Table 1a) was 0.052 nM. This molecule registered a CC50 in data set [2] (Table 1a, day 4, XTT) of more than 1000 nM.
Turning to `Cn1nc(NS(C)(=O)=O)c2c(Cl)ccc(-c3cc4[nH]ccc4nc3C(Cc3cc(F)cc(F)c3)NC(=O)Cn3nc(C(F)F)c4c3C(F)(F)[C@@H]3C[C@H]43)c21` (single isomer, unassigned) [Example 5.2], in data set [1] (Table 1), the EC50 was 400 nM. The molecule also returned a 50% cytotoxic concentration (CC50) in data set [2] (Table 1, day 4, XTT) of more than 10000 nM.
Take `Cn1nc(NS(C)(=O)=O)c2c(Cl)ccc(-n3c([C@H](Cc4cc(F)cc(F)c4)NC(=O)Cn4nc(C(F)F)c5c4C(F)(F)[C@@H]4C[C@H]54)nc4cc(C(C)(C)S(C)(=O)=O)ccc4c3=O)c21` (mixture of isomers) [Example 208, N—((S)-1-(3-(4-chloro-1-methyl-3-(methylsulfonamido)-1H-indazol-7-yl)-7-(2-(methylsulfonyl)propan-2-yl)-4-oxo-3,4-dihydroquinazolin-2-yl)-2-(3,5-difluorophenyl)ethyl)-2-((3bS,4aR)-3-(difluoromethyl)-5,5-difluoro-3b,4,4a,5-tetrahydro-1H-cyclopropa[3,4]cyclopenta[1,2-c]pyrazol-1-yl)acetamide]: the concentration for a half-maximal effect (EC50) in data set [1] (Table 1a) came out at 0.083 nM. In data set [2] (Table 1a, day 4, XTT), this molecule yielded a CC50 of more than 1000 nM.
In the same order, the values of `COc1cc(OC)c2c(=O)n(-c3ccc(Cl)c4c(NS(C)(=O)=O)nn(C)c34)c([C@H](Cc3cc(F)cc(F)c3)NC(=O)Cn3nc(C(F)F)c4c3C(F)(F)[C@@H]3C[C@H]43)nc2c1` (single isomer, unassigned) [Example 182] are 0.061 nM and more than 1000 nM.
In the same order, the values of `COc1cc(F)c2c(=O)n(-c3ccc(Cl)c4c(NS(C)(=O)=O)nn(C)c34)c([C@H](Cc3cc(F)cc(F)c3)NC(=O)Cn3ccc(C4CC4)n3)nc2c1` (single isomer, unassigned) [Example 190] are 42.2 nM and more than 1000 nM.

For the origin of these results see patent publication US10954252B1, “Inhibitors of human immunodeficiency virus replication” (ViiV HEALTHCARE UK (NO.5) LIMITED, priority 2017, dated 2021).
